Assay results published in PMC8355244, “A fragment-based approach identifies an allosteric pocket that impacts malate dehydrogenase activity” (Communications Biology, 2021).
Several values for one entry are separate records, joined by “and”; a condition that tells them apart may be missing. Identical values can stand only once.

Tests used:
[1] = Precipitation / turbidity of compound in assay buffer (600 nm); format: physicochemical; details: aqueous assay buffer
Experimental: 1.3 µL of derivatives of 4-phenylthiazol-2-amine in 100% DMSO were mixed with 237.7 µL of a mastermix of WT PfMDH previously incubated with NAD+. The final compound concentration used in this screening was 500 µM in the presence of 0.5% (v/v) DMSO. The microplate was sealed with silver foil for 1-h incubation at 25–35 °C. Finally, reactions in both the samples and control wells were started upon the addition of 13.0 µL of 5 mM malate). At the end of the experiments, the reaction of the plate was spectrophotometrically assayed at 600 nm in order to identify turbidity due to the low solubility of the compound. All measurements were performed in duplicate.

[2] = target: T1, PfMDH (Plasmodium falciparum, UniProt Q6VVP7); experiment: Thermal shift assay (TSA); format: binding; details: for TSA melting curve raw signal: triplicate columns; for TSA melting curve raw fluorescence signal: three replicate columns
T1 construct: The full-length WT PfMDH gene was cloned into pETM-13; made in house; host or cells: E. coli Rosetta 2 (DE3) pLysS
T1 sequence (Q6VVP7 entry or part of it): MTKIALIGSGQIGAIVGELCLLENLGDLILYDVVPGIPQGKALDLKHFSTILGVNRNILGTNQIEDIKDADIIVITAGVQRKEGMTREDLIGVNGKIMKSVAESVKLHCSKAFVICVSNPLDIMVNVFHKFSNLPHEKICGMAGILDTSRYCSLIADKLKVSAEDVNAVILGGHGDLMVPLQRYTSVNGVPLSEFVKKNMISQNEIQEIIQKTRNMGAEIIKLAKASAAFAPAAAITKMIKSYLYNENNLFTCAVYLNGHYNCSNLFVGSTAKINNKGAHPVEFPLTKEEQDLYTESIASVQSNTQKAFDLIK
Procedure, shortened: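 10 μM PfMDH with 1 mM compound in 100 mM Na–phosphate pH 7.4, 400 mM NaCl, 10× Sypro Orange; 1% DMSO controls. Melting inflection points taken as Tm; shifts >1 °C read as stabilization, negative shifts as destabilization.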

For `Nc1nc(-c2ccccc2)cs1` [4PA, 4-phenylthiazol-2-amine], the “solubility (in words)” value [1] was “slightly more soluble than 4DT”, the ΔTm at 1000 µM ([2]; 1 mM compound vs DMSO control) was -3 °C and the Tm ([2]; 1 mM compound, 10 μM PfMDH, DMSO control Tm 58) was 55.0 ± 0.2 °C. For the same compound, the “TSA melting curve raw signal” value ([2]; Temperature 25) was 3101.562 and 3333.877 and 3419.875, the “TSA melting curve raw signal” value ([2]; Temperature 28.5) was 2982.864 and 3197.483 and 3331.476 and the “TSA melting curve raw signal” value ([2]; Temperature 29) was 2965.133 and 3176.088 and 3316.215. The “TSA melting curve raw signal” value ([2]; Temperature 29.5) was 2946.457 and 3153.433 and 3298.876, the “TSA melting curve raw signal” value ([2]; Temperature 30) was 2926.726 and 3129.047 and 3278.959 and the “TSA melting curve raw signal” value ([2]; Temperature 30.5) was 2906.089 and 3103.354 and 3257.233. The “TSA melting curve raw signal” value ([2]; Temperature 31) was 2885.408 and 3077.356 and 3234.634, the “TSA melting curve raw signal” value ([2]; Temperature 31.5) was 2865.452 and 3051.863 and 3212.437 and the “TSA melting curve raw signal” value ([2]; Temperature 32) was 2847.461 and 3027.963 and 3192.183. For the same compound, the “TSA melting curve raw signal” value ([2]; Temperature 32.5) was 2831.845 and 3007.388 and 3175.246, the “TSA melting curve raw signal” value ([2]; Temperature 33) was 2819.491 and 2990.613 and 3162.466 and the “TSA melting curve raw signal” value ([2]; Temperature 33.5) was 2810.837 and 2978.017 and 3154.456. The “TSA melting curve raw signal” value ([2]; Temperature 34) was 2806.172 and 2970.163 and 3151.8, the “TSA melting curve raw signal” value ([2]; Temperature 34.5) was 2805.279 and 2966.904 and 3154.834 and the “TSA melting curve raw signal” value ([2]; Temperature 35) was 2808.767 and 2967.899 and 3163.624. The “TSA melting curve raw signal” value ([2]; Temperature 35.5) was 2816.443 and 2973.639 and 3178.538, the “TSA melting curve raw signal” value ([2]; Temperature 36) was 2828.317 and 2984.069 and 3199.383 and the “TSA melting curve raw signal” value ([2]; Temperature 36.5) was 2844.427 and 2998.946 and 3225.589. The “TSA melting curve raw signal” value ([2]; Temperature 37) was 2864.693 and 3018.271 and 3256.517, the “TSA melting curve raw signal” value ([2]; Temperature 37.5) was 2888.742 and 3042.246 and 3291.976 and the “TSA melting curve raw signal” value ([2]; Temperature 38) was 2916.555 and 3070.379 and 3330.731. The “TSA melting curve raw signal” value ([2]; Temperature 38.5) was 2948.507 and 3102.617 and 3372.906, the “TSA melting curve raw signal” value ([2]; Temperature 39) was 2984.548 and 3139.232 and 3418.523 and the “TSA melting curve raw signal” value ([2]; Temperature 39.5) was 3025.238 and 3180.62 and 3468.123. For the same compound, the “TSA melting curve raw signal” value ([2]; Temperature 40) was 3070.846 and 3226.341 and 3521.558, the “TSA melting curve raw signal” value ([2]; Temperature 40.5) was 3121.424 and 3276.836 and 3579.878 and the “TSA melting curve raw signal” value ([2]; Temperature 41) was 3176.735 and 3332.701 and 3643.235. For the same compound, the “TSA melting curve raw signal” value ([2]; Temperature 41.5) was 3236.92 and 3394.066 and 3712.066, the “TSA melting curve raw signal” value ([2]; Temperature 42) was 3301.878 and 3461.348 and 3786.574 and the “TSA melting curve raw signal” value ([2]; Temperature 42.5) was 3371.782 and 3535.427 and 3867.61. The “TSA melting curve raw signal” value ([2]; Temperature 43) was 3446.967 and 3616.442 and 3955.318, the “TSA melting curve raw signal” value ([2]; Temperature 43.5) was 3527.686 and 3704.688 and 4050.074 and the “TSA melting curve raw signal” value ([2]; Temperature 44) was 3614.17 and 3800.745 and 4152.165. For the same compound, the “TSA melting curve raw signal” value ([2]; Temperature 44.5) was 3706.596, the “TSA melting curve raw fluorescence signal” value ([2]; Temperature 73.5) was 6991.444 and 7655.524 and 7881.758 and the “TSA melting curve raw fluorescence signal” value ([2]; Temperature 74) was 6939.612 and 7600.258 and 7826.265. For the same compound, the “TSA melting curve raw fluorescence signal” value ([2]; Temperature 74.5) was 6888.076 and 7546.666 and 7771.787, the “TSA melting curve raw fluorescence signal” value ([2]; Temperature 75) was 6836.407 and 7493.684 and 7717.224 and the “TSA melting curve raw fluorescence signal” value ([2]; Temperature 75.5) was 6784.183 and 7441.52 and 7662.752. The “TSA melting curve raw fluorescence signal” value ([2]; Temperature 76) was 6731.402 and 7389.749 and 7608.451, the “TSA melting curve raw fluorescence signal” value ([2]; Temperature 76.5) was 6679.444 and 7337.884 and 7553.49 and the “TSA melting curve raw fluorescence signal” value ([2]; Temperature 77) was 6628.226 and 7285.068 and 7497.822. The “TSA melting curve raw fluorescence signal” value ([2]; Temperature 77.5) was 6578.245 and 7231.451 and 7441.978, the “TSA melting curve raw fluorescence signal” value ([2]; Temperature 78) was 6529.803 and 7176.607 and 7385.969 and the “TSA melting curve raw fluorescence signal” value ([2]; Temperature 78.5) was 6482.748 and 7121.157 and 7329.423. For the same compound, the “TSA melting curve raw fluorescence signal” value ([2]; Temperature 79) was 6436.76 and 7065.937 and 7274.048, the “TSA melting curve raw fluorescence signal” value ([2]; Temperature 79.5) was 6391.899 and 7012.239 and 7219.892 and the “TSA melting curve raw fluorescence signal” value ([2]; Temperature 80) was 6347.542 and 6960.087 and 7166.546. For the same compound, the “TSA melting curve raw fluorescence signal” value ([2]; Temperature 80.5) was 6302.907 and 6909.426 and 7113.859, the “TSA melting curve raw fluorescence signal” value ([2]; Temperature 81) was 6257.989 and 6859.788 and 7062.389 and the “TSA melting curve raw fluorescence signal” value ([2]; Temperature 81.5) was 6211.993 and 6810.814 and 7010.574. The “TSA melting curve raw fluorescence signal” value ([2]; Temperature 82) was 6164.6 and 6762.251 and 6958.299, the “TSA melting curve raw fluorescence signal” value ([2]; Temperature 82.5) was 6116.092 and 6712.951 and 6905.437 and the “TSA melting curve raw fluorescence signal” value ([2]; Temperature 83) was 6067.721 and 6663.14 and 6852.004. For the same compound, the “TSA melting curve raw fluorescence signal” value ([2]; Temperature 83.5) was 6019.674 and 6612.874 and 6798.049, the “TSA melting curve raw fluorescence signal” value ([2]; Temperature 84) was 5972.405 and 6562.27 and 6744.245 and the “TSA melting curve raw fluorescence signal” value ([2]; Temperature 84.5) was 5926.625 and 6510.347 and 6690.517. For the same compound, the “TSA melting curve raw fluorescence signal” value ([2]; Temperature 85) was 5882.391 and 6459.307 and 6637.567, the “TSA melting curve raw fluorescence signal” value ([2]; Temperature 85.5) was 5838.459 and 6409.022 and 6584.837 and the “TSA melting curve raw fluorescence signal” value ([2]; Temperature 86) was 5794.143 and 6359.5 and 6531.78. The “TSA melting curve raw fluorescence signal” value ([2]; Temperature 86.5) was 5749.377 and 6310.687 and 6478.281, the “TSA melting curve raw fluorescence signal” value ([2]; Temperature 87) was 5703.739 and 6263.164 and 6424.447 and the “TSA melting curve raw fluorescence signal” value ([2]; Temperature 87.5) was 5656.691 and 6215.001 and 6369.065. For the same compound, the “TSA melting curve raw fluorescence signal” value ([2]; Temperature 88) was 5609.372 and 6165.882 and 6313.087, the “TSA melting curve raw fluorescence signal” value ([2]; Temperature 88.5) was 5562.587 and 6115.522 and 6256.819 and the “TSA melting curve raw fluorescence signal” value ([2]; Temperature 89) was 5515.924 and 6063.705 and 6199.979. The “TSA melting curve raw fluorescence signal” value ([2]; Temperature 89.5) was 5468.97 and 6010.228 and 6142.345 and the “TSA melting curve raw fluorescence signal” value ([2]; Temperature 90) was 5422.458.
